Results on 29 molecules are retold here after ChEMBL document CHEMBL6153041, “Discovery of High-Affinity SMARCA2/4 Bromodomain Ligands and Development of Potent and Exceptionally Selective SMARCA2 PROTAC Degraders” (J Med Chem, 2025).

Where only a bound is given, the exact number is not on record here.

Broadly, the IC50 is the concentration that inhibits the measured activity by half. One may read the DC50 as the midpoint of the concentration-degradation curve. One may read the Emax as the maximal effect, on the per cent scale that the assay sets.

The target in assay [1] is SWI/SNF-related matrix-associated actin-dependent regulator of chromatin subfamily A member 2 (Homo sapiens, UniProt P51531). Briefly: Inhibition of recombinant human GST-tagged SMARCA2 bromodomain measured after 120 mins incubation by TR-FRET assay. In general terms: Time-resolved FRET reads energy transfer from a long-lived donor to a nearby acceptor.
Sequence of SWI/SNF-related matrix-associated actin-dependent regulator of chromatin subfamily A member 2 (P51531 whole entry): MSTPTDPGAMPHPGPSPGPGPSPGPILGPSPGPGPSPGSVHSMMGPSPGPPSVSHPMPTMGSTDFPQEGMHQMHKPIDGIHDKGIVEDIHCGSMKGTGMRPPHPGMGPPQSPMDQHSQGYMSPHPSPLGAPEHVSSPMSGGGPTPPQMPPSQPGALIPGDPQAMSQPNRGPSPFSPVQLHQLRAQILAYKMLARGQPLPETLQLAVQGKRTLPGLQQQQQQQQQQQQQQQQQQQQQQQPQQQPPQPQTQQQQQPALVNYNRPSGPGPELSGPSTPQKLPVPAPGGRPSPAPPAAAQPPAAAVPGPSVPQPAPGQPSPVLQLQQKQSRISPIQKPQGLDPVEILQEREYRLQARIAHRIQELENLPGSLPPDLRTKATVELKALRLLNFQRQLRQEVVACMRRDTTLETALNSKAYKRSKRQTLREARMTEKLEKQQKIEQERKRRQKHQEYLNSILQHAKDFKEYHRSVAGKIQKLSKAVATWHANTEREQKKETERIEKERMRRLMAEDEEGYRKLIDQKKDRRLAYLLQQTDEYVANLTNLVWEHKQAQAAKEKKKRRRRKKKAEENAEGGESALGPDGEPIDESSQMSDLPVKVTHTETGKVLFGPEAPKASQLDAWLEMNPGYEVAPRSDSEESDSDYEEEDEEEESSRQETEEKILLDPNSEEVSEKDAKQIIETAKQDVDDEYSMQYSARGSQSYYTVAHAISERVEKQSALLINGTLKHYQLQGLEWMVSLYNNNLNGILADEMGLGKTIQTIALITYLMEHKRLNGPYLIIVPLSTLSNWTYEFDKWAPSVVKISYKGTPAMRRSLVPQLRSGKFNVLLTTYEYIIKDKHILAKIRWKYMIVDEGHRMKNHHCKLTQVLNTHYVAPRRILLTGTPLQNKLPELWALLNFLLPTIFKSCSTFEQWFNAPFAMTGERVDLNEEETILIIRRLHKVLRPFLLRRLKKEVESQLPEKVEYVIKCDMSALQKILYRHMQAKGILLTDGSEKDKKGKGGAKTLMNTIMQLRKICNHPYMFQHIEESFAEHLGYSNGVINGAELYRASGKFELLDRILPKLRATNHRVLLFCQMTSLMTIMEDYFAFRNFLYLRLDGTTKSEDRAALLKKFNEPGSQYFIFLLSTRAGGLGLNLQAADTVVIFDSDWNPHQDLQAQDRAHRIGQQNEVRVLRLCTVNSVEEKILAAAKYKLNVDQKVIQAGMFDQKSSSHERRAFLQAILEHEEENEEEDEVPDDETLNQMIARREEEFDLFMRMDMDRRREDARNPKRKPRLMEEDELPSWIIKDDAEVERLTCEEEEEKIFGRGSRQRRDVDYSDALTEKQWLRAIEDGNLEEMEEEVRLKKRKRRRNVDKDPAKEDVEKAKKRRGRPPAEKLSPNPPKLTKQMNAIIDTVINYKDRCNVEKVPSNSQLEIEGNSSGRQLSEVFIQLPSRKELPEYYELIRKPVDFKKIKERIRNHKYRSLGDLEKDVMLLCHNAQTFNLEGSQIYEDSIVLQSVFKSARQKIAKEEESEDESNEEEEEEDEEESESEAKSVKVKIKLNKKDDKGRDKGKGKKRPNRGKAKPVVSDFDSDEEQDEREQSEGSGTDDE
For assay [2], the target named is SWI/SNF-related matrix-associated actin-dependent regulator of chromatin subfamily A member 4 (Homo sapiens, UniProt P51532). Briefly: Inhibition of recombinant human GST-tagged SMARCA4 bromodomain measured after 120 mins incubation by TR-FRET assay.
Sequence of SWI/SNF-related matrix-associated actin-dependent regulator of chromatin subfamily A member 4 (P51532 whole entry): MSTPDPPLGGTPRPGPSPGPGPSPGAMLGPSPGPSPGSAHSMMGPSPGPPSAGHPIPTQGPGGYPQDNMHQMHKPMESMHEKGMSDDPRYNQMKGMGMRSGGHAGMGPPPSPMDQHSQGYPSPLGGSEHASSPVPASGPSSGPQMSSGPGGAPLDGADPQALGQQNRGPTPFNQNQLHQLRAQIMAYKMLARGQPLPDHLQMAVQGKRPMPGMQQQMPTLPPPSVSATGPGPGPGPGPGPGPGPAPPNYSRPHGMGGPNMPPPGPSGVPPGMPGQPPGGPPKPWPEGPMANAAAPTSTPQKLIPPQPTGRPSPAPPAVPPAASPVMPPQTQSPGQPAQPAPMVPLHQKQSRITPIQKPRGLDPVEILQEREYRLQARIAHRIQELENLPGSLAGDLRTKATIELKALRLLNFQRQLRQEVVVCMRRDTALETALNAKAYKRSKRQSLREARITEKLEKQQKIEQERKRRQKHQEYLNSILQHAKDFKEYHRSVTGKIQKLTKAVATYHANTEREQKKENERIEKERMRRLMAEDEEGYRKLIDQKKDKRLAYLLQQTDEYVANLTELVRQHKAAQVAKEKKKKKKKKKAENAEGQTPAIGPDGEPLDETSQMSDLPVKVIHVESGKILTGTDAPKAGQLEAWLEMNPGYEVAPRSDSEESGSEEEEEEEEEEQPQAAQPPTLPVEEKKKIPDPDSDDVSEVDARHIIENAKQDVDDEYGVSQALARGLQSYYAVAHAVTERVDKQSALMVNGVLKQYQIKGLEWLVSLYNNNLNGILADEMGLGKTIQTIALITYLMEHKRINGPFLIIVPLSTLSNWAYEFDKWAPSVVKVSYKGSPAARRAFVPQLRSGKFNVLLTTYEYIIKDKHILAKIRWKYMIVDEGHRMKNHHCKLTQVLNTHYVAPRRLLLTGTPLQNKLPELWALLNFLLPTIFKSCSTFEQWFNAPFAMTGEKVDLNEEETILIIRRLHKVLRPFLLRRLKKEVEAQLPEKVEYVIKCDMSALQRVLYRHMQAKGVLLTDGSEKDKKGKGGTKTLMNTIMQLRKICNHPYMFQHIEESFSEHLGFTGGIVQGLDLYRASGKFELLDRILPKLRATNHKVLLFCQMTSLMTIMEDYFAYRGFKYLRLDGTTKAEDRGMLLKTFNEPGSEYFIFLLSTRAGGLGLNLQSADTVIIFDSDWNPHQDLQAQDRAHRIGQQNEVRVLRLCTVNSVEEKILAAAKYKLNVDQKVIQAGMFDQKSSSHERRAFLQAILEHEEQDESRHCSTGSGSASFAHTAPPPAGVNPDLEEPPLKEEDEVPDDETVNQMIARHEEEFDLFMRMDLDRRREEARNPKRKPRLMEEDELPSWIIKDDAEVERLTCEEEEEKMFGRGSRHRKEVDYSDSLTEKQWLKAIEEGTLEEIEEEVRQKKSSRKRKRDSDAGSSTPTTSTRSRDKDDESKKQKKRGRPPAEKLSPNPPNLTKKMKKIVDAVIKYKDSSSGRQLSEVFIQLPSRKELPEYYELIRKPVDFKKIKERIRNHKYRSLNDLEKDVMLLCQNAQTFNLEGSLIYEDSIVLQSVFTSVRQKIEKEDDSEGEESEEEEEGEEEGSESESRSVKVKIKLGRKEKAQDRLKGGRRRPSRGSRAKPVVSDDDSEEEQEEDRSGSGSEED
Assay [3] concerns the target T1, von Hippel-Lindau disease tumor suppressor/SWI/SNF-related matrix-associated actin-dependent regulator of chromatin subfamily A member 2 (Homo sapiens, UniProt P51531+P40337). Briefly: PROTAC activity at VHL1/SMARCA2 in human genetically modified Hela cells assessed as degradation measured after 24 hrs incubation by Nano-Glo HiBiT Lytic Detection Assay. It counts as cell-based. Background: The HiBiT peptide binds its large partner to form an active luciferase.
Target sequence in this assay (P51531 whole entry): as the sequence (P51531 whole entry) above
Target sequence in this assay (P40337 whole entry): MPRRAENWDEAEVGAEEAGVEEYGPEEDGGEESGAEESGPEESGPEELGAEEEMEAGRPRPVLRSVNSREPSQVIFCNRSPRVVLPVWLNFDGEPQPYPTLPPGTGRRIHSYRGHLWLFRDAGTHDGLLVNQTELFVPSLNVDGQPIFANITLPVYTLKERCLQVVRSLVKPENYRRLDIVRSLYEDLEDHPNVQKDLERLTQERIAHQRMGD

Assay [4] has as its target T1, von Hippel-Lindau disease tumor suppressor/SWI/SNF-related matrix-associated actin-dependent regulator of chromatin subfamily A member 2. Briefly: PROTAC activity at VHL1/SMARCA2 in human genetically modified Hela cells assessed as maximal degradation measured after 24 hrs incubation by Nano-Glo HiBiT Lytic Detection Assay relative to control. It is filed as cell-based.
Target sequence in this assay (P40337 whole entry, looked up): as the sequence (P40337 whole entry) above
Target sequence in this assay (P51531 whole entry, looked up): as the sequence (P51531 whole entry) above

Assay [5] deals with T2, von Hippel-Lindau disease tumor suppressor/SWI/SNF-related matrix-associated actin-dependent regulator of chromatin subfamily A member 4 (Homo sapiens, UniProt P51532+P40337). The experiment in a line: PROTAC activity at VHL1/SMARCA4 in human genetically modified Hela cells assessed as degradation measured after 24 hrs incubation by Nano-Glo HiBiT Lytic Detection Assay. It counts as cell-based.
Target sequence in this assay (P51532 whole entry): as the sequence (P51532 whole entry) above
Target sequence in this assay (P40337 whole entry): as the sequence (P40337 whole entry) above

Assay [6] deals with T2, von Hippel-Lindau disease tumor suppressor/SWI/SNF-related matrix-associated actin-dependent regulator of chromatin subfamily A member 4. The experiment in a line: PROTAC activity at VHL1/SMARCA4 in human genetically modified Hela cells assessed as maximal degradation measured after 24 hrs incubation by Nano-Glo HiBiT Lytic Detection Assay relative to control. It counts as cell-based.
Target sequence in this assay (P40337 whole entry, looked up): as the sequence (P40337 whole entry) above
Target sequence in this assay (P51532 whole entry, looked up): as the sequence (P51532 whole entry) above

The next assay has as its system HeLa. The experiment in a line: Selectivity ratio, ratio of DC50 for VHL1/SMARCA4 in human genetically modified Hela cells to VHL1/SMARCA2 in human genetically modified Hela cells. It is filed as cell-based.

As to `O=c1nc2n(c3cccc(Cl)c13)-c1cc(C3CCNCC3)ccc1C21CCCC1`, the values for the IC50 in assay [1] and in assay [2] were 106 nM and 133 nM, respectively.

Regarding `O=c1nc2n(c3cccc(Cl)c13)-c1cc(C3CCNCC3)ccc1C21CCOCC1`, the results for the IC50 in assay [1] and in assay [2] were 630 nM and 1150 nM, respectively.

Regarding `Cc1ncsc1-c1ccc([C@H](C)NC(=O)[C@@H]2C[C@@H](O)CN2C(=O)[C@@H](c2cc(N3CCC(CN4CCC(O[C@H]5C[C@H](Oc6cc(CN7C8CCC7CN(c7cc(-c9ccccc9O)nnc7N)C8)ccn6)C5)CC4)CC3)no2)C(C)C)cc1`, the DC50 in assay [3] was determined as 0.1 nM; in assay [5], 1.3 nM. Further, the figures for the Emax in assay [4] and in assay [6] were 97% and 96%, respectively. In addition, the Ratio in the assay with HeLa came out at 13.

For `CCc1cccc2c1c(=O)nc1n2-c2cc(C3CCNCC3)ccc2C12CCCCC2`, the IC50 in assay [1] was found to be 3400 nM; in assay [2] it was 2840 nM.

Regarding `O=c1nc2n(c3cccc(Cl)c13)-c1ccc(C3CCNCC3)cc1C21CCCCCC1`, the IC50 came out at 153 nM in assay [1] and 129 nM in assay [2].

As to `Cc1ncsc1-c1ccc([C@H](C)NC(=O)[C@@H]2C[C@@H](O)CN2C(=O)[C@@H](NC(=O)[C@H]2CC[C@H](CN3CCC(c4ccc5c(c4)C4(CCCCC4)c4nc(=O)c6c(Cl)cccc6n4-5)CC3)CC2)C(C)(C)C)cc1`, the Emax came to 92% in assay [4] and 48% in assay [6]. Further, the DC50 in assay [5] is more than 10000 nM. The Ratio in the assay with HeLa was more than 1500.

For the molecule `Cc1ncsc1-c1ccc([C@H](C)NC(=O)[C@@H]2C[C@@H](O)CN2C(=O)[C@@H](NC(=O)CCCCCN2CCC(c3ccc4c(c3)C3(CCCCC3)c3nc(=O)c5c(Cl)cccc5n3-4)CC2)C(C)(C)C)cc1`, the figures for the DC50 in assay [3] and in assay [5] were 29 nM and 697 nM, respectively. The values for the Emax in assay [4] and in assay [6] were 94% and 55%, respectively. In addition, in the assay with HeLa, the Ratio is 24.

In the case of `Cc1ncsc1-c1ccc([C@H](C)NC(=O)[C@@H]2C[C@@H](O)CN2C(=O)[C@@H](NC(=O)[C@H]2CC[C@H](CN3CCC(c4ccc5c(c4)-n4c(nc(=O)c6c(Br)cccc64)C54CCCCC4)CC3)CC2)C(C)(C)C)cc1`, the DC50 in assay [3] was 14 nM; in assay [5] it was more than 10000 nM. The figures for the Emax in assay [4] and in assay [6] were 88% and 37%, respectively. Further, the Ratio with HeLa was more than 700.

For the molecule `O=c1nc2n(c3cccc(Cl)c13)-c1ccc(C3CCNCC3)cc1C21CCCC1`, the half-inhibitory concentration (IC50) in assay [1] was found to be 56 nM; in assay [2], 55 nM.

As for `Cc1ncsc1-c1ccc([C@H](CCCCCN2CCC(c3ccc4c(c3)-n3c(nc(=O)c5c(Br)cccc53)C43CCCCC3)CC2)NC(=O)[C@@H]2C[C@@H](O)CN2C(=O)[C@@H](NC(=O)C2(F)CC2)C(C)(C)C)cc1`, the results for the DC50 in assay [3] and in assay [5] were 3 nM and 84 nM, respectively. Further, the Emax in assay [4] is 95%; in assay [6] it was 93%. Moreover, the Ratio with HeLa was determined as 28.

As for `O=c1nc2n(c3cccc(O)c13)-c1cc(C3CCNCC3)ccc1C21CCCCC1`, the IC50 in assay [1] was found to be 4520 nM; in assay [2], 3210 nM.

Turning to `O=c1nc2n(c3cccc(Br)c13)-c1ccc(C3CCNCC3)cc1C21CCCC1`, the IC50 in assay [1] stood at 62 nM; in assay [2] it was 51 nM.

Regarding `O=c1nc2n(c3ccccc13)-c1cc(C3CCNCC3)ccc1C21CCCCC1`, the results for the IC50 in assay [1] and in assay [2] were 3070 nM and 1440 nM, respectively.

Take `O=c1nc2n(c3nccc(O)c13)-c1cc(C3CCNCC3)ccc1C21CCCCC1`: the IC50 in assay [1] and in assay [2] was more than 10000 nM throughout.

For `Cc1ncsc1-c1ccc([C@H](C)NC(=O)[C@@H]2C[C@@H](O)CN2C(=O)[C@@H](NC(=O)[C@H]2CC[C@H](CN3CC4(CCC(n5cc(-c6cc(-c7ccccc7O)nnc6N)cn5)CC4)C3)CC2)C(C)(C)C)cc1`, the DC50 is 23 nM in assay [3] and 895 nM in assay [5]. Besides, the Emax in assay [4] stood at 93%; in assay [6], 52%. Also, in the assay with HeLa, the Ratio is 39.

On to `Cc1ncsc1-c1ccc([C@H](C)NC(=O)[C@@H]2C[C@@H](O)CN2C(=O)[C@@H](NC(=O)CCCN2CCC(c3ccc4c(c3)C3(CCCCC3)c3nc(=O)c5c(Cl)cccc5n3-4)CC2)C(C)(C)C)cc1`, for which the results for the DC50 in assay [3] and in assay [5] were 61 nM and 7000 nM, respectively. The Emax was 87% in assay [4] and 70% in assay [6]. The Ratio with HeLa was 115.

Regarding `Cc1ncsc1-c1ccc([C@H](C)NC(=O)[C@@H]2C[C@@H](O)CN2C(=O)[C@@H](NC(=O)CCCCN2CCC(c3ccc4c(c3)C3(CCCCC3)c3nc(=O)c5c(Cl)cccc5n3-4)CC2)C(C)(C)C)cc1`, the values for the DC50 in assay [3] and in assay [5] were 105 nM and more than 10000 nM, respectively. The Emax was 88% in assay [4] and more than 39% in assay [6]. Besides, the Ratio in the assay on HeLa was more than 950.

Consider `O=c1nc2n(c3cccc(Cl)c13)-c1ccc(C3CCNCC3)cc1C21CCOCC1`, for which the IC50 in assay [1] is 538 nM; in assay [2], 612 nM.

`Cc1ncsc1-c1ccc([C@H](CCCCCN2CCC(c3ccc4c(c3)-n3c(nc(=O)c5c(Cl)cccc53)C43CCCCC3)CC2)NC(=O)[C@@H]2C[C@@H](O)CN2C(=O)[C@@H](NC(=O)C2(F)CC2)C(C)(C)C)cc1`: the DC50 was determined as 7.5 nM in assay [3] and 22 nM in assay [5]. Moreover, the Emax in assay [4] amounted to 92%; in assay [6], 87%. For the same molecule, the Ratio in the assay on HeLa turned out to be 3.

Consider `Cc1ncsc1-c1ccc([C@H](C)NC(=O)[C@@H]2C[C@@H](O)CN2C(=O)[C@@H](NC(=O)CN2CCC(c3ccc4c(c3)C3(CCCCC3)c3nc(=O)c5c(Cl)cccc5n3-4)CC2)C(C)(C)C)cc1`, for which the DC50 in assay [3] was 5.3 nM; in assay [5], 8.7 nM. The Emax in assay [4] and in assay [6] was 97% throughout. Also, the Ratio with HeLa amounted to 2.

For `O=c1nc2n(c3cccc(Br)c13)-c1ccc(C3CCNCC3)cc1C21CCCCC1`, the IC50 is 30 nM in assay [1] and 38 nM in assay [2].

Regarding `Cc1ncsc1-c1ccc([C@H](C)NC(=O)[C@@H]2C[C@@H](O)CN2C(=O)[C@@H](NC(=O)[C@H]2CC[C@H](CN3CCC(c4ccc5c(c4)C4(CCCCC4)c4nc(=O)c6c(Br)cccc6n4-5)CC3)CC2)C(C)(C)C)cc1`, the 50% degradation concentration (DC50) in assay [3] was 3 nM; in assay [5], 162 nM. Moreover, the Emax in assay [4] is 93%; in assay [6], 58%. Besides, the Ratio in the assay with HeLa is 54.

Turning to `O=c1nc2n(C3CCCC3)c3cc(C4CCNCC4)ccc3n2c2cccc(Br)c12`, the IC50 in assay [1] came out at 45 nM; in assay [2], 83 nM.

On to `O=c1nc2n(c3cccc(Cl)c13)-c1ccc(C3CCNCC3)cc1C21CCCCC1`, for which, in assay [1], the IC50 was found to be 53 nM.

Regarding `Cc1ncsc1-c1ccc([C@H](CCCCCN2CCC(c3ccc4c(c3)C3(CCCCC3)c3nc(=O)c5c(Br)cccc5n3-4)CC2)NC(=O)[C@@H]2C[C@@H](O)CN2C(=O)[C@@H](NC(=O)C2(F)CC2)C(C)(C)C)cc1`, the values for the DC50 in assay [3] and in assay [5] were 0.24 nM and 1.7 nM, respectively. Further, the Emax in assay [4] and in assay [6] was 97% in each case. In addition, the Ratio in the assay with HeLa was determined as 7.

As to `O=c1nc2n(c3cccc(Br)c13)-c1cc(C3CCNCC3)ccc1C21CCCCC1`, the IC50 in assay [1] stood at 64 nM; in assay [2], 90 nM.

In the case of `O=c1nc2n(c3cccc(Cl)c13)-c1ccc(C3CCNCC3)cc1C21CCNCC1`, the IC50 in assay [1] was 3450 nM; in assay [2] it was 3340 nM.

On to `Cc1ncsc1-c1ccc([C@H](C)NC(=O)[C@@H]2C[C@@H](O)CN2C(=O)[C@@H](NC(=O)CCN2CCC(c3ccc4c(c3)C3(CCCCC3)c3nc(=O)c5c(Cl)cccc5n3-4)CC2)C(C)(C)C)cc1`, for which the DC50 in assay [3] worked out at 99 nM; in assay [5], 543 nM. Besides, the values for the Emax in assay [4] and in assay [6] were 93% and 77%, respectively. Besides, the Ratio in the assay with HeLa is 6.

As for `O=c1nc2n(c3ccnc(O)c13)-c1cc(C3CCNCC3)ccc1C21CCCCC1`, the IC50 in assay [1] and in assay [2] was more than 10000 nM throughout.
